Measured values published in patent US20230340440A1, “GENETIC MANIPULATION METHOD IN BACTERIA” (University of Washington, priority 2022, published 2023).
In brackets after ≈: the same amount, converted by molar mass. Where two headings read alike, the source gives them in different places.

Legend:
LacI-Ptrc promoter = experiment: inducible LacI-Ptrc-mediated activation of an mRFP reporter gene; type: cell-based, P. putida KT2440; conditions: 1 mM IPTG compared to the no inducer condition
Protocol: (§1) FIGS. 17A-17C show inducible promoters in P. putida (FIG. 17A). Inducible LacI-Ptrc-mediated activation of an mRFP reporter gene in P. putida KT2440 with 0-1 mM IPTG. A 13-fold activation at 1 mM IPTG was observed compared to the no inducer condition. Inducible XylS-Pm-mediated activation of an mRFP reporter gene in P. putida KT2440 with 0-5 mM m-toluic acid (FIG. 17B). […] The XylS-Pm promoter provides a better dynamic range compared to LacI-Ptrc promoter mainly due to its relatively low basal expression. mRFP reporter gene fluorescence distributions measured by flow cytometry (FIG. 17C). […] Values in FIG. 17A represent the mean ± standard deviation calculated from n = 6 independent biological replicates. Values in FIG. 17B represent the mean ± standard deviation calculated from n = 3 independent biological replicates. […]
(§2) Fluorescence measurements of reporter gene expression were carried out either by flow cytometry or plate reader. […] For flow cytometry, overnight cultures were diluted 1:50 in Dulbecco’s phosphate-buffered saline (PBS) and analyzed on a MACSQuant VYB flow cytometer with the MACSQuantify 2.8 software (Miltenyi Biotec) using the methods and instruments settings as described (Dong et al., 2018. Synthetic CRISPR-Cas gene activators for transcriptional reprogramming in bacteria. Nat Commun 9, 2489). […]

XylS-Pm promoter = experiment: inducible XylS-Pm-mediated activation of an mRFP reporter gene; type: cell-based, P. putida KT2440; conditions: 1 mM m-toluic acid compared to the no inducer condition
Protocol: as §1, §2

XylS-Pm-dCas9 = experiment: tunable CRISPRa/CRISPRi in inducible-dCas9 strain (PPC08), J3-BBa_J23110-mRFP reporter; type: cell-based, P. putida
Text: FIGS. 5A-5B show CRISPRa with endogenous promoters and inducible CRISPRa/CRISPRi in P. putida. The putative promoter sequences between two open reading frames (ORFs) with 60 bp flanking sequences were incorporated into the mRFP reporter (FIG. 5A). scRNAs were introduced for all potentially activable target sites corresponding to the effective distances as tested in FIGS. 2B & 2C. Precise distances from the target site to the TSS are listed in Table 5. hAAVS1 was used as an off-target scRNA for all ten promoters. […] The inducible-dCas9 strain yielded 3-fold activation with CRISPRa or 7-fold repression with CRISPRi at 1 mM m-toluic acid compared to the no-inducer control. Fold-changes compared to the off-target control were 4-fold and 5-fold, respectively. […] Values represent the mean ± standard deviation calculated from n = 3 independent biological replicates.
(§3) Fluorescence measurements of reporter gene expression were carried out either by flow cytometry or plate reader. Single colonies from LB plates were inoculated in 500 µL of EZ-RDM (Teknova) supplemented with the appropriate antibiotics and grown in 96-deep-well plates at 30° C. with shaking overnight 225 rpm. For small-molecule induction, overnight cultures were diluted 100-fold into a new culture with appropriate antibiotics and inducers, then shaken overnight at 30° C., 225 rpm. For flow cytometry, overnight cultures were diluted 1:50 in Dulbecco’s phosphate-buffered saline (PBS) and analyzed on a MACSQuant VYB flow cytometer with the MACSQuantify 2.8 software (Miltenyi Biotec) using the methods and instruments settings as described (Dong et al., 2018. Synthetic CRISPR-Cas gene activators for transcriptional reprogramming in bacteria. Nat Commun 9, 2489). For plate reader measurements, 150 µL of overnight culture were transferred into a flat, clear-bottomed black 96-well plate. OD600 and fluorescence values were measured in a Biotek Synergy HTX plate reader and analyzed using the BioTek Gen5 2.07.17 software. For mRFP1 detection, the excitation wavelength was 540 nm and emission wavelength was 600 nm. For sfGFP detection, the excitation wavelength was 485 nm and the emission wavelength was 528 nm. Data were plotted using Prism (GraphPad).
A reporter with either an activating scRNA or a repressing sgRNA was delivered to the inducible dCas9 strain (PPC08) and 3-fold activation with CRISPRa or 7-fold repression with CRISPRi at 1 mM m-toluic acid (FIG. 5B) was observed. […] By targeting CRISPRi and CRISPRa to the same locus, we may be able to obtain lower basal expression and higher induced expression. […]

[1] = test system: XylS-Pm promoters regulating dCas9 and/or MCP-SoxS; experiment: inducible CRISPRa by XylS-Pm on CRISPRa machinery, J3-BBa_J23117-mRFP reporter (pPPC020); type: cell-based, P. putida; conditions: for fold-activation in the presence of inducer: J306 scRNA
Text: FIGS. 18A-18B show inducible CRISPRa by XylS-Pm on CRISPRa machinery. Inducible dCas9/MCP-SoxS constructs were integrated into the P. putida genome with the mini-Tn7 method (FIG. 18A). XylS-Pm promoters were introduced in place of the Sp.pCas9 promoter regulating dCas9 and/or the BBa_J23107 promoter for MCP-SoxS. Strains were transformed with a vector (pPPC020) carrying either an off-target scRNA or a J306 scRNA (FIG. 18B). The fold-activation in the presence of m-toluic acid as an inducer are 9-fold, 5-fold, and 10-fold from PPC08, PPC09, and PPC10, respectively. […] If only MCP-SoxS is under control of the inducible promoter, leaky activation is detectable. In a strain with constitutively expressed CRISPRa machinery that should not be responsive to inducer, high inducer concentrations (5 mM) also led to a modest increase in mRFP expression (1.3-fold). Values represent the mean ± standard deviation calculated from n = 3 independent biological replicates.
as §3, with “For sfGFP detection, the excitation wavelength was 485 nm and the emission wavelength was 528 nm. Data were plotted using Prism (GraphPad).” left out
To tune expression levels with CRISPRa and CRISPRi, the CRISPR system components were placed under the control of a small-molecule inducible promoter. dCas9 and/or MCP-SoxS were expressed using XylS-Pm, an inducible promoter system from the P. putida mt-2 toluene degradation pathway (Wirth et al., 2019. Accelerated genome engineering of Pseudomonas putida by I-SceI-mediated recombination and CRISPR-Cas9 counterselection. Microb Biotechnol). […] In all three inducible strains assessed, tunable gene activation as a function of inducer concentration was observed (FIG. 18B). […]

P. putida cultures = experiment: consumption of extracellular p-ACA by growing P. putida cultures; conditions: stability of accumulation in culture supernatant
p-ACA solubility limit = type: physicochemical; conditions: aqueous buffer; extracellular, culture media
E. coli = experiment: growth experiment with extracellular p-ACA, E. coli; type: cell-based
Text: (§4) FIGS. 31A-31F show CRISPRa efficiency can be tuned by expression level of scRNA. The optimized expression level of scRNA from pBBR1-GmR is under J23110 promoter. Higher level (BBa_J23119) or lower level (BBa_J23106) led to decrease in CRISPRa effects (FIG. 31A). CRISPRa efficiency can be tuned by scRNA composition (FIG. 31B). Truncating the spacer sequence from 20 nucleotides to 8 nucleotides led to titratable expression level by CRISPRa. Desired product p-ACA is toxic to E. coli but not P. putida (FIG. 31C). In this kinetic growth experiment, extracellular p-ACA is supplied in the media at the indicated concentrations, and cultures are grown in a plate reader with periodic density measurements. E. coli growth is severely limited above 20 mM p-ACA (dash-dotted line). Early timepoints are sometimes obscured by p-ACA precipitate, which eventually resolubilizes. […] Error bars represent standard deviation of n=3 biological replicates. […] An example of CRISPRa with 3 orthogonal scRNAs activating 3 fluorescent reporters (FIG. 31E). Multiple scRNAs construction strategy was based on Golden-Gate Assembly (FIG. 31F).
(§5) With further chemical modification or bioconversions, pACA can be converted into p-aminostyrene (pAS) which is a precursor of derivatized polystyrene, containing a functional group for further modification or functionalization with other polymers. […] Assuming that high concentration of pACA could be deleterious to the host, a growth experiment using E. coli, the standard chassis, and P. putida, known for resistance to aromatic compounds was performed. It is obvious that E. coli cannot tolerate high concentrations of pACA while P. putida growth is less affected. Thus, the solution to microbial production of pACA might be achievable with P. putida as an alternative chassis.
As originally implemented in E. coli, the p-AF production pathway consisted of the P. fluorescens papABC operon78 under tet-inducible control, along with a feedback-resistant E. coli aroG74 and aroL in their own operon, which is also tet-inducible. […] Toxic amounts of extracellular p-ACA, the result of a spike into the media, are shown in FIG. 31B, with 50% reduction of E. coli growth occurring above 10 mM extracellular.

P. putida = experiment: growth experiment with extracellular p-ACA, P. putida; type: cell-based
Text: as §4, §5
In contrast to E. coli, p-ACA has little effect on P. putida growth, even up to 20 mM extracellular (close to its solubility limit). Therefore, the inventors chose to port the existing pAF pathway into P. putida to extend it to more valuable downstream aromatic products.

[2] = 1 mM m-toluic acid compared to the no-inducer control
[3] = 1 mM m-toluic acid compared to the off-target control

SMILES: CC(C)S[C@@H]1O[C@H](CO)[C@H](O)[C@H](O)[C@H]1O [IPTG]
- activation of mRFP reporter (LacI-Ptrc) (LacI-Ptrc promoter): 13 fold

SMILES: Cc1cccc(C(=O)O)c1 [m-toluic acid]
- activation of mRFP reporter (XylS-Pm) (XylS-Pm promoter): > 300 fold
- activation with CRISPRa (XylS-Pm-dCas9; [2]): 3 fold
- repression with CRISPRi (XylS-Pm-dCas9; [2]): 7 fold
- fold-change with CRISPRa (XylS-Pm-dCas9; [3]): 4 fold
- fold-change with CRISPRi (XylS-Pm-dCas9; [3]): 5 fold
- increase in mRFP expression ([1]; 5 mM inducer, strain with constitutively expressed CRISPRa machinery): 1.3 fold
- fold-activation in the presence of inducer ([1]; strain PPC08 (inducible dCas9)): 9 fold
- fold-activation in the presence of inducer ([1]; strain PPC09 (inducible MCP-SoxS)): 5 fold
- fold-activation in the presence of inducer ([1]; strain PPC10 (dCas9 and MCP-SoxS inducible)): 10 fold

SMILES: Nc1ccc(C=CC(=O)O)cc1 [p-ACA, p-aminocinnamic acid]
- consumption of extracellular p-ACA by growing P. putida cultures (P. putida cultures): lack of consumption
- solubility (p-ACA solubility limit): ~20 mM (≈ 3260 µg/mL)
- IC50 (E. coli; Escherichia coli, read-out: 50% reduction of E. coli growth): > 10 mM
- E. coli growth severely limited above (E. coli; kinetic growth experiment, extracellular p-ACA in the media, plate reader (FIG. 31C)): above 20 mM
- toxic effects in E. coli host (E. coli; production/accumulation in E. coli): toxic effects
- toxicity in P. putida strain with the putative catabolic pathway knocked out (P. putida; follow-up experiments): lack of p-ACA toxicity
- P. putida growth (P. putida; kinetic growth experiment, extracellular p-ACA in the media (FIG. 31C)): relatively unaffected
- effect on P. putida growth (P. putida; up to 20 mM extracellular): little effect

SMILES: Nc1ccc(C[C@H](N)C(=O)O)cc1 [p-AF, p-aminophenylalanine]
- toxic effects in E. coli host (E. coli): can safely accumulate
